Test results from patent US5763596A, “C-4' modified adenosine kinase inhibitors” (Metabasis Therapeutics, Inc., priority 1996, dated 1998).
Counter-ions that a name gives are not always drawn.

Assays:
male SA rats [1] = test: rat skin lesion model, inhibition of neutrophil accumulation induced by carrageenan; format: in vivo
Procedure: The dorsal skin of male SA rats was shaved and carrageenan (Type λ) or phosphate-buffered saline was injected intradermally. Three hours later, the injection sites were biopsied and weighed. Neutrophil content of the skin biopsies was measured as the quantity of myeloperoxidase (MPO) present in a tissue homogenate. The excised, weighed skin pieces were placed in 4 ml 0.5% mixed alkyl trimethylammonium bromide and homogenized at the highest speed for 15 seconds in a Polytron homogenizer (Brinkmann Instruments, Westbury, N.Y.). Lipids were extracted by adding 1 ml of dichloromethane to the homogenate, vortexing vigorously, and centrifuging at 1000 g, 5° C. for 15 min. Fifty μl of each supernatant was added in duplicate to a 96 well assay plate, along with dilutions of human myeloperoxidase standard. Potassium phosphate buffer (pH 6.1) containing 0.36 mg/ml of o-dianisidine dihydrochloride and 0.001% hydrogen peroxide was added (200 μl/well), and the absorbance at 450 nm was read after 5 min incubation at room temperature. The myeloperoxidase content of each skin piece was calculated from a standard curve constructed using least-square regression, and expressed as units of MPO/g of tissue.
AK inhibitors were administered orally using polyethylene glycol-400 as vehicle or intraperitoneally using dimethylsulfoxide as vehicle, at indicated time before skin lesion injection. For each experiment, the average of all values from saline-induced lesions was calculated. This baseline value was then subtracted from values obtained from carrageenan-induced lesions. Percent inhibition for AK inhibitors were calculated from these baseline-corrected values.

Rats (male, Simonsen) = test: formalin paw model; format: in vivo, rat; set-up: concentration or dose not given beside the values; details: oral, 90 min before formalin; for % Inhibition Phase 1 Composite score: 1.7-5 min post-formalin; for % Inhibition Phase 2 Composite score: 10.3-30 min post-formalin
Procedure: In this assay, injection of formalin, an irritant, into the hindpaw of rats typically evokes a biphasic response of pain-related behaviors. Phase 1 of the response which is brief, lasting approximately 0-5 min post-injection,is followed by a more prolonged phase 2, lasting approximately 10-80 min post-injection. Phase 1 behavior is thought to be a direct effect of the irritant on nociceptors at the injection site while phase 2 behavior is thought to include a hyperalgesic component mediated by sensitization of neuronal elements within the spinal cord. Studies from other laboratories have found the first portion of Phase 2 (sometimes referred to as Phase 2a) to be most responsive to pharmacological manipulation.
Rats (male, Simonsen) weighing between 100-200 g, are used in the present experiments. For screening purposes drugs are administered orally 90 min prior to initiation of formalin test. At designated intervals the animals in groups of 4 are placed individually in a small animal restrainer with the right hindpaw accessible through a hole in the bottom of the restrainer. The formalin paw assay is initiated by the injection using a 30G needle of 50 μl of a 5% formalin solution in saline into the right plantar surface of each hindpaw. The rat is then immediately placed in a separate plexiglass box and scoring (described below) of the animal's behavior is begun at 1.7 min after formalin injection. The instantaneous behavior of each animal in a group of 4 was observed and assigned a score once in each 20 second interval. This sequence is repeated over a 30 min period. The scoring protocol is an adaptation of the method published by Dubuisson and Dennis (Pain 4:161-174, 1977) which assigns a score from 0-3 as follows:
0--no discernible favoring of injected paw, weight evenly distributed
1--injected paw is favored, rests lightly on floor
2--injected paw is elevated
3--injected paw is vigorously licked, bitten or shake
Scores are continuously recorded directly onto an Excel spreadsheet. […] 2) the total number of incidences specifically of licking/biting behavior is summed over Phase 2 and mean values determined from 6 different animals with results expressed as % inhibition compared to vehicle control.

adenosine kinase = adenosine kinase (AK) inhibition; format: biochemical, pig heart or recombinant human; details: 0.5 μM [U-14C] adenosine, pH 7.0, 20 minutes
Procedure: Adenosine kinase activity was measured essentially as described by Yamada et al. (Yamada, Y., Goto, H., Ogasawara, N. (1988) Biochim. Biophys. Acta 660, 36-43.) with a few minor modifications. […] Natl. Acad. Sci. […] The reactions were incubated for 20 minutes at […] The assay was quenched upon spotting 30 μL aliquots onto 2 cm^2 pieces of Whatman DE81 anion exchange paper. The papersquares were washed for 3 minutes in 6 L distilled/deionized water to remove the unreacted adenosine. The washed squares were rinsed in 95% ethanol and dried in an oven at 100° C. for 10 minutes. The amount of ^14 C-AMP was quantified by scintillation counting.

Rats = test: anti-inflammatory activity, carrageenan paw; format: in vivo, rat; details: 10 mg/kg, swelling after 3 hours; for Carrageenan Paw (% inh) i.p.: 30 min before carrageenan; for Carrageenan Paw (% inh) p.o.: 1 h before carrageenan
Procedure: Carrageenan (Type λ) was suspended in sterile PBS at 1% (w/v), autoclaved for 30 minutes, and stored at room temperature. Rats were pretreated with vehicle or AK inhibitor (10 mg/kg) by oral gavage or i.p. administration and the volume of the left hind paw was measured using a water displacement plethysmometer (Stoelting Co., Wood Dale, Ill.). One hour after oral treatment or 30 minutes after i.p. treatment, the rats were briefly anaesthetized, and 0.1 ml of the carrageenan solution was injected subcutaneously into the planar surface of the left hind paw. The ensuing paw swelling was measured by plethysmometry after 3 hours. The paw volume in milliliters was subtracted from the pre-injection paw volume. Data are presented in Table 8 as the percent inhibition of paw swelling in AK inhibitor treated animals, compared to vehicle treated control animals.

Female SA rats = test: liver toxicity, serum SGOT, SGPT and total bilirubin; format: in vivo, rat; set-up: unit not given here; details: 2 x 37.5 μmol/kg i.v. infusion (total 75 μmol/kg), 12 h after second dose
Procedure: Female SA rats (150-200 g) were anesthetized with halothane and cannulated via the internal jugular vein. The animals were allowed to recover for 3 days. […] Twelve hours later, an additional 37.5 μmol kg was infused over 40 minutes (total dose=75 μmol/kg). Twelve hours after the second dose, the animals were anesthetized with halothane and exsanguinated through the descending aorta. Serum was prepared and liver enzymes (serum glutamic-oxaloacetic transaminase (SGOT), serum glutamic-pyruvic transaminase (SGPT)) and total bilirubin in the serum samples were determined by a commercial laboratory.

male SA rats [2] = test: anticonvulsant activity, maximal electroshock (MES) model; format: in vivo; details: Rattus norvegicus, ip, 1 h before MES; >5 / <5: fewer / more than 50% of animals inhibited at 5 mg/kg in initial screen
Procedure: The anticonvulsant activity of the tested compounds was evaluated in male SA rats (100-150 g, Simonsen) using the maximal electroshock (MES) model described in Swinyard et al., Antiepileptic Drugs, 3d Ed. at 85-102 (Levy, et al., eds.), NY: Raven Press (1989). The rats were maintained on a 12/12 light/dark cycle in temperature controlled facilities with free access to food and water. For p.o. administration, the animals are fasted overnight, prior to the experiment. One hour prior to seizure testing, the animals were injected interperitoneally (ip) or orally (per os, po) with one of various doses of test compound dissolved in DMSO or PEG 400.
Maximal electroshock seizures (MES) were induced by administering a 150 mA, 60 Hz current for 0.2 seconds via corneal electrodes using a Wahlquist Model H stimulator. […] This endpoint was expressed as the percentage of animals in which the response was inhibited. Typically, compounds were screened initially at one hour following a dose of 5 mg/kg ip. […] The results for exemplary compounds of the invention are set forth in Table 8, expressed as ED50 values.

Compound | IC50 (adenosine kinase) [nM] | Carrageenan Paw (% inh) i.p. (Rats) [%] | average serum Total Bilirubin (Female SA rats) | average serum content of SGOT (Female SA rats) | average serum content of SGPT (Female SA rats) | Carrageenan Paw (% inh) p.o. (Rats) [%] | ED50 at 5 mg/kg (male SA rats [2]) [mg/kg] | other results
4-N-Phenylamino-5-phenyl-7-(4-C-methyl-β-D-ribofuranosyl)pyrrolo[2,3- d]pyrimidine [#81] | 45 | 46 | – | – | – | – | – | % inhibition of neutrophil accumulation (male SA rats [1]; p.o., pretreatment 60 min, 10 mg/kg): 0%; % inhibition of neutrophil accumulation (male SA rats [1]; p.o., pretreatment 60 min, 20 mg/kg): 26%; % inhibition of neutrophil accumulation (male SA rats [1]; p.o., pretreatment 60 min, 30 mg/kg): 40%; % Inhibition Phase 1 Composite score (Rats (male, Simonsen)): 24.8%; % Inhibition Phase 2 Composite score (Rats (male, Simonsen)): 35.1%; % Inhibition Phase 2. Licking/biting (Rats (male, Simonsen)): 67.8%
O[C@@H]1[C@H](O)CO[C@H]1n1cc(-c2ccc(F)cc2)c2c(Nc3ccc(F)cc3)ncnc21 [#29] | – | – | 0.16 | 130 | 30 | – | – | –
O[C@@H]1[C@H](O)CO[C@H]1n1cc(-c2ccccc2)c2c(Nc3ccc(CCN4CCNCC4)cc3)ncnc21 [#43, 4-N-[4-(2-(1-Piperazino)ethyl)phenyl]amino-5-phenyl-7-(β-D-erythrofuranosyl)pyrrolo[2,3-d]pyrimidine trihydrochloride salt] | 3.5 | 65 | 0.1 | 99 | 58 | 34 | – | –
OCC1(CO)O[C@@H](n2cc(-c3ccccc3)c3c(Nc4ccccc4)ncnc32)[C@H](O)[C@@H]1O [compound 1] | 1.2 | 3 | 0.1 | 65 | 53 | 18 | – | –
O[C@@H]1[C@H](O)CO[C@H]1n1cc(-c2ccccc2)c2c(Nc3ccccc3)ncnc21 [compound 27] | 4 | 44 | 0.14 | 114 | 41 | 12 | < 5 | % inhibition of neutrophil accumulation (male SA rats [1]; i.p., pretreatment 30 min, 3 mg/kg): 2%; % inhibition of neutrophil accumulation (male SA rats [1]; i.p., pretreatment 30 min, 10 mg/kg): 59%; % inhibition of neutrophil accumulation (male SA rats [1]; i.p., pretreatment 30 min, 30 mg/kg): 89%; % inhibition of neutrophil accumulation (male SA rats [1]; i.p., pretreatment 60 min, 10 mg/kg): 60%; % inhibition of neutrophil accumulation (male SA rats [1]; i.p., pretreatment 120 min, 10 mg/kg): 14%; % inhibition of neutrophil accumulation (male SA rats [1]; i.p., pretreatment 180 min, 10 mg/kg): 2%; % inhibition of neutrophil accumulation (male SA rats [1]; i.p., pretreatment 240 min, 10 mg/kg): 0%; % inhibition of neutrophil accumulation (male SA rats [1]; i.p., pretreatment 360 min, 10 mg/kg): 0%; % Inhibition Phase 1 Composite score (Rats (male, Simonsen)): 25.5%; % Inhibition Phase 2 Composite score (Rats (male, Simonsen)): 47.6%; % Inhibition Phase 2. Licking/biting (Rats (male, Simonsen)): 77.5%
CN(C)Cc1ccc(Nc2ncnc3c2c(-c2ccccc2)cn3[C@@H]2O[C@@](C)(CO)[C@@H](O)[C@H]2O)cc1 [compound 64] | 70 | – | – | – | – | – | > 5 | –
C[C@]1(CO)O[C@@H](n2cc(-c3ccccc3)c3c(Nc4ccccc4)ncnc32)[C@H](O)[C@@H]1O [compound 81] | 2000 | – | – | – | – | – | – | –
O[C@H]1[C@H](n2cc(-c3ccccc3)c3c(Nc4ccc(F)cc4)ncnc32)OC2(CC2)[C@H]1O [compound 150] | 0.3 | 78 | 1.58 | 560 | 155 | 80 | 0.23 | –
Nc1ncnc2c1c(I)cn2[C@@H]1OC2(CC2)[C@@H](O)[C@H]1O [compound 175] | 600 | – | – | – | – | – | – | –
O[C@@H]1[C@H](O)CO[C@H]1n1cc(-c2ccccc2)c2c(Nc3ccc(Cl)cc3)ncnc21 [compound 299] | 40 | 20 | – | – | – | 28 | – | –
Nc1ncnc2c1c(I)cn2[C@@H]1OC[C@@H](O)[C@H]1O [compound 300] | 6 | 90 | – | – | – | 91 | – | –
O[C@@H]1[C@H](O)CO[C@H]1n1cc(-c2ccccc2)c2c(Nc3ccc(CCN4CCOCC4)cc3)ncnc21 [compound 301] | 1 | 21 | – | – | – | 39 | – | –
COC[C@]1(CO)O[C@@H](n2cc(-c3ccccc3)c3c(Nc4ccc(F)cc4)ncnc32)[C@H](O)[C@@H]1O [compound 352] | 400 | – | – | – | – | – | – | –
COC[C@@]1(CO)O[C@@H](n2cc(-c3ccccc3)c3c(Nc4ccc(F)cc4)ncnc32)[C@H](O)[C@@H]1O [compound 372] | 24 | – | – | – | – | – | > 5 | –
NC[C@]1(CO)O[C@@H](n2cc(-c3ccccc3)c3c(Nc4ccc(F)cc4)ncnc32)[C@H](O)[C@@H]1O [compound 392] | 1100 | – | – | – | – | – | – | –
O[C@@H]1[C@H](O)CO[C@H]1n1nc(-c2ccc(Cl)cc2)c2c(Nc3ccccc3)ncnc21 [compound 432] | 90 | 24 | – | – | – | 15 | > 5 | –
